# Experimental data reported in patent publication US20220125052A1, “Herbicidal Compositions” (SYNGENTA CROP PROTECTION AG, priority 2019, published 2022).
# Experiments:
# Assay in all cases: Post-emergence efficacy (B1), glasshouse spray test
# Type in all cases: in vivo
# Lolium perenne (LOLPE) = conditions: evaluated after 13 days, 100=total damage to plant, 0=no damage to plant
# Procedure: (§1) B1 Post-emergence efficacy Seeds of a variety of test species were sown in standard laom-based soil in pots:—Ipomoea hederacea (IPOHE), Euphorbia heterophylla (EPHHL), Chenopodium album (CHEAL), Amaranthus palmeri (AMAPA), Lolium perenne (LOLPE), Digitaria sanguinalis (DIGSA), Eleusine indica (ELEIN), Echinochloa crus-galli (ECHCG), Setaria faberi (SETFA). After cultivation for 14 days (post-emergence) under controlled conditions in a glasshouse (at 24/16° C., day/night; 14 hours light; 65% humidity), the plants were sprayed with an aqueous spray solution derived from the dissolution of the technical active ingredient Formula (I) in a small amount of acetone and a special solvent and emulsifier mixture referred to as IF50 (11.12% Emulsogen EL360 TM+44.44% N-methylpyrrolidone+44.44% Dowanol DPM glycol ether), to create a 50 g/l solution which was then diluted to required concentration using 0.25% or 1% Empicol ESC70 (Sodium lauryl ether sulphate)+1% ammonium sulphate as diluent. The delivery of the aqueous spray solution was via a laboratory track sprayer which delivered the aqueous spray composition at a rate of 200 litres per hectare, using a flat fan nozzle (Teejet 11002VS) and an application volume of 200 litre/ha (at 2 bar). The test plants were then grown in a glasshouse under controlled conditions (at 24/16° C., day/night; 14 hours light; 65% humidity) and watered twice daily. After 13 days the test was evaluated (100=total damage to plant; 0=no damage to plant).
# Eleusine indica (ELEIN) = conditions: 500 g/Ha, evaluated after 13 days, 100=total damage to plant, 0=no damage to plant
# Procedure: as §1
# [1] = tested on: Digitaria sanguinalis (DIGSA); conditions: 500 g/Ha, evaluated after 13 days, 100=total damage to plant, 0=no damage to plant
# Procedure: as §1
# Setaria faberi (SETFA) = conditions: 500 g/Ha, evaluated after 13 days, 100=total damage to plant, 0=no damage to plant
# Procedure: as §1
# [2] = tested on: Echinochloa crus-galli (ECHCG); conditions: 500 g/Ha, evaluated after 13 days, 100=total damage to plant, 0=no damage to plant
# Procedure: as §1
# [3] = tested on: Euphorbia heterophylla (EPHHL); conditions: 500 g/Ha, evaluated after 13 days, 100=total damage to plant, 0=no damage to plant
# Procedure: as §1
# [4] = tested on: Chenopodium album (CHEAL); conditions: 500 g/Ha, evaluated after 13 days, 100=total damage to plant, 0=no damage to plant
# Procedure: as §1
# [5] = tested on: Amaranthus palmeri (AMAPA); conditions: 500 g/Ha, evaluated after 13 days, 100=total damage to plant, 0=no damage to plant
# Procedure: as §1
compound,measurement,setting,value
"O=C(O)CC[n+]1ccc(-c2ncccn2)cn1.[Cl-] [Compound 1.010, 3-(4-pyrimidin-2-ylpyridazin-1-ium-1-yl)propanoic acid chloride]",Control of weed species after post-emergence application: LOLPE,Lolium perenne (LOLPE); 500 g/Ha,90
"O=C(O)CC[n+]1ccc(-c2ncccn2)cn1.[Br-] [Compound 1.021, 3-(4-pyrimidin-2-ylpyridazin-1-ium-1-yl)propanoic acid bromide]",Control of weed species after post-emergence application: ELEIN,Eleusine indica (ELEIN),100
same,Control of weed species after post-emergence application: DIGSA,[1],100
same,Control of weed species after post-emergence application: SETFA,Setaria faberi (SETFA),100
same,Control of weed species after post-emergence application: ECHCG,[2],100
same,Control of weed species after post-emergence application: EPHHL,[3],100
"O=C(O)CC[n+]1ccc(-c2ncccn2)cn1 [Compound 1.023, 3-(4-pyrimidin-2-ylpyridazin-1-ium-1-yl)propanoic acid 2,2,2-trifluoroacetate]",pest or weed control at 500 g/ha,"Lolium perenne (LOLPE); Lolium perenne, 312 h, read-out: Control of weed species after post-emergence application: LOLPE",90%
"O=C(O)CC[n+]1ccc(-c2cccnn2)cn1.[Cl-] [Compound 1.027, 3-(4-pyridazin-3-ylpyridazin-1-ium-1-yl)propanoic acid chloride]",Control of weed species after post-emergence application: CHEAL,[4],100
same,Control of weed species after post-emergence application: DIGSA,[1],100
same,Control of weed species after post-emergence application: AMAPA,[5],100
same,Control of weed species after post-emergence application: SETFA,Setaria faberi (SETFA),100
same,Control of weed species after post-emergence application: ECHCG,[2],100
same,Control of weed species after post-emergence application: EPHHL,[3],100
"Cl.N[C@@H](CCC[n+]1ccc(-c2ncccn2)cn1)C(=O)O.[Cl-] [Compound 1.030, [(1S)-1-carboxy-4-(4-pyrimidin-2-ylpyridazin-1-ium-1-yl)butyl]-ammonium dichloride]",Control of weed species after post-emergence application: DIGSA,[1],100
same,Control of weed species after post-emergence application: SETFA,Setaria faberi (SETFA),100
same,Control of weed species after post-emergence application: ECHCG,[2],100
